Where “and” joins values, the source holds several entries; their conditions need not be identical. Equal values may be shown once.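 The compound was tested at five concentrations on cells cultured in 96-well plates, with a 48-hour exposure period. Abbreviation: GI50, concentration required for 50% inhibition of growth. At the TGI there is no net growth.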 Bounds are passed on as bounds.

Here are results for 20 molecules from PubChem BioAssay (NCI).

Holding throughout (test): NCI anticancer screen, dose series, 48 h
For test [1], the system named is A549 NSCLC.
For test [2], the system named is K-562 leukemia.
Test [3] concerns OVCAR-3 ovarian.
The subject of test [4] is OVCAR-5 ovarian.
In test [5] the test system is OVCAR-8 ovarian.
The subject of test [6] is SF-539 CNS.
Test [7] concerns SNB-75 CNS.
Test [8] has as its system SR leukemia.
For test [9], the system named is EKVX NSCLC.
Test [10] concerns HCT-15 colon.

Consider `Cc1cccc(NC(=O)CC(=O)N2N=C(N(CCC#N)c3ccc(Cl)cc3)CC2c2ccccc2)c1` (stereo unspecified), for which the TGI in [1], in test [2], in [3], in test [4], in test [5] and in test [6] was more than 100 µM each time. For the same molecule, the TGI in test [7] and in [8] was more than 100 µM throughout.

Consider `CNS(=O)(=O)NN(C)S(=O)(=O)c1ccc(F)cc1`, for which the TGI in test [1], in test [9], in test [10], in [2], in test [3] and in test [4] was more than 100 µM throughout. Besides, the TGI in test [5], in test [6] and in [7] was more than 100 µM throughout.

For `O=Cc1cn(C(=O)c2ccccc2)c2ccccc12`, the TGI in test [1], in test [9], in test [10], in test [2], in test [3] and in [4] was more than 100 µM each time. The TGI in test [5], in [6] and in [7] was more than 100 µM in each case.

In the case of `O=C(CP(=O)(O)O)c1cccs1`, the TGI in [1], in test [9], in [10], in [2], in test [3] and in test [4] was more than 100 µM each time. The TGI in [5], in [6] and in [7] was more than 100 µM in each case.

`CSC1CC2C(CC1(C)O)C2(C)C` (stereo unspecified): the TGI was more than 100 µM in [1]; 92.1 µM and > 100 µM in [9]; more than 100 µM in test [10]; more than 100 µM in test [2]; more than 100 µM in test [3]; more than 100 µM in test [4]. Also, the TGI in test [5], in [6] and in [7] was more than 100 µM in each case. Further, the GI50 in test [9] was 13.3 µM and > 100 µM; in test [2], 49.7 µM and > 100 µM; in [3] it was 38.5 µM and > 100 µM; in [7], > 100 µM and 47.9 µM.

Consider `CC1SC(c2c(Cl)cccc2Cl)N(NC(=O)c2[nH]c3ccc(F)cc3c2-c2ccccc2)C1=O` (stereo unspecified), for which the GI50 in [1] was 1.68 µM; in test [9] it was 2.33 µM; in test [10], 3.73 µM; in [2], 21.9 µM; in test [3] it was 1.76 µM; in [4] it was 3.06 µM. Moreover, the GI50 was 1.7 µM in [5], 3.7 µM in test [6] and 1.43 µM in test [7]. The TGI in test [1] was 3.16 µM; in [9], 10.8 µM; in [10], 22.2 µM; in test [2] it was more than 100 µM; in [3], 3.45 µM; in test [4], 21.3 µM. For the same molecule, the TGI was determined as 3.39 µM in test [5], 11.9 µM in test [6] and 3.27 µM in [7].

With `Cc1ccc(-c2c(N)[n+]([O-])c3ccccc3[n+]2[O-])cc1`, the TGI in [1] is 62.3 µM; in test [9] it was 50.2 µM; in [10] it was 15.3 µM; in test [2], more than 100 µM; in test [3], 30.3 µM; in test [4] it was 32.5 µM. Further, the results for the TGI in test [5], in test [6] and in test [7] were more than 100 µM, 29.3 µM and 26 µM, respectively.

In the case of `Cc1cc(N(CCC#N)S(=O)(=O)c2ccccc2)ccc1/C=C1N=C(/C=C/c2ccccc2)OC\1=O`, the TGI in test [1], in test [9], in test [10], in [2], in test [3] and in test [4] was more than 100 µM in each case. The TGI in [5], in test [6] and in test [7] was more than 100 µM in each case.

Regarding `CC1=NCCc2c1[nH]c1cc(O)ccc21`, the TGI in test [1], in test [9], in test [10], in test [2], in test [3] and in [4] was more than 100 µM throughout. For the same molecule, the TGI in test [5], in test [6] and in [7] was more than 100 µM in each case.

Regarding `CCCN=Cc1cc(Cc2ccc(O)c(C=NCCC)c2)ccc1O`, the TGI in test [1] is 32.3 µM; in [9], 26.4 µM; in test [10], 12.3 µM; in test [2] it was 4.71 µM; in [3], 14.4 µM; in [4] it was 36.6 µM. Besides, the TGI in test [5] turned out to be 20.4 µM; in [6], 9 µM; in test [7] it was 9.67 µM.

As to `CCCc1[nH]nc(CCC(=O)N(Cc2ccccc2)Cc2ccccc2)c1CC`, the TGI in test [1], in test [9], in [10], in test [2], in [3] and in [4] was more than 100 µM in each case. The TGI in test [5], in test [6] and in test [7] was more than 100 µM in each case.

As to `O=C1c2ccccc2-c2c1c1ccccc1c(=O)n2CCCNCCCNCCCn1c2c(c3ccccc3c1=O)C(=O)c1ccccc1-2`, the GI50 in [1] was 0.0174 µM; in test [9], 0.25 µM; in [10], 0.0605 µM; in test [2] it was 0.0225 µM; in test [3], 0.0818 µM; in [4], 0.0763 µM. In addition, the GI50 is less than 0.01 µM in test [5] and 1.13 µM in test [7]. Also, the TGI came out at 0.183 µM in test [1]; 0.595 µM in [9]; 0.196 µM in [10]; 1.22 µM in test [2]; 0.232 µM in [3]; 0.731 µM in test [4]. Moreover, the TGI in test [5] was found to be 0.201 µM; in test [7] it was 3.05 µM.

For the molecule `CC1CCCCc2nc3c(c(=O)n21)CCCC3` (stereo unspecified), the TGI in test [1], in test [10], in test [2], in test [3], in test [4] and in test [5] was more than 100 µM in each case. Besides, the TGI in test [6] and in [7] was more than 100 µM each time.

For `COC(=O)CCC(NC(=S)N/N=C(\C)c1nccs1)C(=O)OC` (stereo unspecified), the TGI in test [1], in test [9], in test [10], in test [2], in [3] and in [4] was more than 100 µM in each case. For the same molecule, the TGI in test [5], in test [6] and in [7] was more than 100 µM each time.

In the case of `C1CCSCCCCSCCCCSCCCCSC1`, the TGI in test [1], in [9], in test [10], in test [2], in test [3] and in test [4] was more than 100 µM throughout. Further, the TGI in test [5], in [6] and in [7] was more than 100 µM in each case.

Take `COc1ccc2c(c1)C(O)(C(F)(F)F)c1cc(C(=O)C(F)(F)F)c3ccccc3c1N2` (stereo unspecified): the TGI in [1] was 28.3 µM; in test [9], 34.1 µM; in [10], 21 µM; in test [2], 15.7 µM; in test [3], 29.4 µM; in test [4] it was 27.5 µM. Further, the TGI was 31.3 µM in [6] and 36 µM in test [7].

Consider `N#CC(C(=O)/C(=N/NC(=O)c1ccccc1O)C(C#N)c1ccc(Cl)cc1)c1ccc(Cl)cc1` (stereo unspecified), for which the TGI in [1] was 72.8 µM; in [9] it was 36.9 µM; in test [10], 37.7 µM; in test [2], 79.1 µM; in test [3], 35.5 µM; in test [4], 34.3 µM. Also, the TGI worked out at 26.3 µM in [5] and 31.3 µM in [6].

As to `CN(C)/C=C/c1nnc([N+](=O)[O-])s1`, the TGI in test [1] came to 66.4 µM; in test [10], 32.2 µM; in [3], 7.58 µM; in [5], 53.3 µM; in test [6], 23.4 µM; in test [7], 66.6 µM.

Consider `O=C(O)c1ccc([Se][Se]c2ccc(C(=O)O)cc2)cc1`, for which the TGI in test [1] was more than 100 µM; in test [9], 64.3 µM; in test [10] it was more than 100 µM; in test [3], 42.9 µM; in [4], 66.8 µM; in [5] it was 70.8 µM. The TGI worked out at 92.1 µM in [6] and 88.3 µM in test [7].

Regarding `N#Cc1cnc2cc(OC[C@H](O)CO)c(NC(=O)CC3CSSC3)cc2c1Nc1ccc(OCc2cccc(F)c2)c(Cl)c1`, the GI50 in [1] is 0.924 µM; in [9], 0.696 µM; in test [10] it was 3.96 µM; in test [2], 0.122 µM; in test [3], 0.514 µM; in test [4], 0.872 µM. Also, the figures for the GI50 in test [5], in test [6] and in test [7] were 1.02 µM, 0.791 µM and 0.879 µM, respectively. Also, the TGI in test [1] was 1.98 µM; in test [9], 1.67 µM; in [10], 13.2 µM; in test [2], 0.361 µM; in [3], 1.24 µM; in test [4], 1.89 µM. The TGI in [5] worked out at 2.28 µM; in test [6], 1.55 µM; in test [7], 1.74 µM.
